This is an account of results in US20230372498A1, “PLK1 SELECTIVE DEGRADATION INDUCING COMPOUND” (UPPTHERA, priority 2020, published 2023).

Read-outs that look alike come from different tables or passages of the source.

This assay addresses T1, PLK1 (Homo sapiens, UniProt P53350).
T1 construct: endogenous in cells; host or cells: HeLa
In words: PLK1 protein degradation in HeLa cells, Western blotting (PLK1/GAPDH ratio). Format: cell-based. The note with it: 6 hours compound incubation; for DC50: measured only if the grade of Dmax is A or B; for Dmax: thymidine block and release, 10 points three-fold from 3 μM, PLK1 to GAPDH ratio. An outline of the steps: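 Thymidine-synchronised HeLa cells (2 mM, 24 h) released 4 h into complete medium, then treated 6 h with compound in 10-point 3-fold dilutions from 3 μM. RIPA lysates (15 μg protein) run on SDS-PAGE; PLK1 Western blot normalised to GAPDH.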

T1 sequence (P53350 whole entry): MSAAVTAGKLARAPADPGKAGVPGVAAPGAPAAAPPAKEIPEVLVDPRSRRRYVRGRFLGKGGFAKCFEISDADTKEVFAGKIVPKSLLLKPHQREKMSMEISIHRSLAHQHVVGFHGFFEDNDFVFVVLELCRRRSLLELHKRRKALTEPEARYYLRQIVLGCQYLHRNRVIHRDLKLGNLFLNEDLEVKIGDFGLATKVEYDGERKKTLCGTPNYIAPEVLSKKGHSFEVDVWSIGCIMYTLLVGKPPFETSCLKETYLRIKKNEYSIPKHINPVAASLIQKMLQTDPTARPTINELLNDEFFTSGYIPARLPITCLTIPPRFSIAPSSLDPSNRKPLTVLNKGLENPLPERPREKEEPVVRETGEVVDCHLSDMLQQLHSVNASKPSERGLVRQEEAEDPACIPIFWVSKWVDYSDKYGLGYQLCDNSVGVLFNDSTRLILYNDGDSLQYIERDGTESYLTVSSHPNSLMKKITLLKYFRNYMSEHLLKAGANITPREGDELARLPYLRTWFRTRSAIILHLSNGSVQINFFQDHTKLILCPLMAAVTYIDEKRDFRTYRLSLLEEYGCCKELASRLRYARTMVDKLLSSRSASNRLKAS

Broadly, the DC50 is the concentration giving 50% degradation. What is called Dmax is the largest share of the target that was removed. Turning to `COc1cc(C(=O)N[C@H]2CCN(CCOCCNC(=O)CNc3cccc4c3C(=O)N(C3CCC(=O)NC3=O)C4=O)C2)c(F)cc1Nc1ncc2c(n1)N(C1CCCC1)CC(F)(F)C(=O)N2C` (stereo partly drawn) [Example 112, 4-((9-cyclopentyl-7,7-difluoro-5-methyl-6-oxo-6,7,8,9-tetrahydro-5H-pyrimido[4,5-b][1,4]diazepin-2-yl)amino)-N-((3S)-1-(2-(2-(2-((2-(2,6-dioxopiperidin-3-yl)-1,3-dioxoisoindolin-4-yl)amino)acetamido)ethoxy)ethyl)pyrrolidin-3-yl)-2-fluoro-5-methoxybenzamide], the DC50 was at most 500 nM. Further, the Dmax (read-out: Dmax) fell in the range of 60 to 80%.

Take `COc1cc(C(=O)NC2CCN(CCOCCN(C)CCNc3cccc4c3C(=O)N(C3CCC(=O)NC3=O)C4=O)CC2)c(F)cc1Nc1ncc2c(n1)N(C1CCCC1)CC(F)(F)C(=O)N2C` (stereo not shown) [Compound 49, 4-((9-cyclopentyl-7,7-difluoro-5-methyl-6-oxo-6,7,8,9-tetrahydro-5H-pyrimido[4,5-b][1,4]diazepin-2-yl)amino)-N-(1-(2-(2-((2-((2-(2,6-dioxopiperidin-3-yl)-1,3-dioxoisoindolin-4-yl)amino)ethyl)(methyl)amino)ethoxy)ethyl)piperidin-4-yl)-2-fluoro-5-methoxybenzamide]: the DC50 is at most 500 nM. Also, for the setting “read-out: Dmax”, the maximal degradation (Dmax) is 60 to 80%.

On to `COc1cc(C(=O)N[C@@H]2CCN(C(=O)CCCCN3CCN(c4ccc5c(c4)C(=O)N(C4CCC(=O)NC4=O)C5=O)CC3)C2)c(F)cc1Nc1ncc2c(n1)N(C1CCCC1)CC(F)(F)C(=O)N2C` (stereo partly drawn) [Compound 139, 4-((9-cyclopentyl-7,7-difluoro-5-methyl-6-oxo-6,7,8,9-tetrahydro-5H-pyrimido[4,5-b][1,4]diazepin-2-yl)amino)-N-((3R)-1-(5-(4-(2-(2,6-dioxopiperidin-3-yl)-1,3-dioxoisoindolin-5-yl)piperazin-1-yl)pentanoyl)pyrrolidin-3-yl)-2-fluoro-5-methoxybenzamide], for which the DC50 was at most 50 nM. Further, the Dmax (read-out: Dmax) was at least 80%.

Regarding `COc1cc(C(=O)NC2CCN(C(=O)CCN3CCN(c4cccc5c4C(=O)N(C4CCC(=O)NC4=O)C5=O)CC3)CC2)c(F)cc1Nc1ncc2c(n1)N(C1CCCC1)CC(F)(F)C(=O)N2C` (stereo not shown) [Compound 71, 4-((9-cyclopentyl-7,7-difluoro-5-methyl-6-oxo-6,7,8,9-tetrahydro-5H-pyrimido[4,5-b][1,4]diazepin-2-yl)amino)-N-(1-(3-(4-(2-(2,6-dioxopiperidin-3-yl)-1,3-dioxoisoindolin-4-yl)piperazin-1-yl)propanoyl)piperidin-4-yl)-2-fluoro-5-methoxybenzamide], the DC50 is at most 50 nM. For the same compound, the Dmax (read-out: Dmax) is at least 80%.

For the compound `COc1cc(C(=O)NC2CCN(CCCCOCCCNc3cccc4c3C(=O)N(C3CCC(=O)NC3=O)C4=O)CC2)c(F)cc1Nc1ncc2c(n1)N(C1CCCC1)CC(F)(F)C(=O)N2C` (stereo not shown) [Compound 19, 4-((9-cyclopentyl-7,7-difluoro-5-methyl-6-oxo-6,7,8,9-tetrahydro-5H-pyrimido[4,5-b][1,4]diazepin-2-yl)amino)-N-(1-(4-(3-((2-(2,6-dioxopiperidin-3-yl)-1,3-dioxoisoindolin-4-yl)amino)propoxy)butyl)piperidin-4-yl)-2-fluoro-5-methoxybenzamide], the DC50 was at most 500 nM. Also, for the setting “read-out: Dmax”, the Dmax lay within 60 to 80%.

Consider `COc1cc(C(=O)NC2CCN(CCOCCNC(=O)COc3cccc4c3C(=O)N(C3CCC(=O)NC3=O)C4=O)C2)c(F)cc1Nc1ncc2c(n1)N(C1CCCC1)CC(F)(F)C(=O)N2C` (stereo not shown) [Compound 127, 4-((9-cyclopentyl-7,7-difluoro-5-methyl-6-oxo-6,7,8,9-tetrahydro-5H-pyrimido[4,5-b][1,4]diazepin-2-yl)amino)-N-(1-(2-(2-(2-((2-(2,6-dioxopiperidin-3-yl)-1,3-dioxoisoindolin-4-yl)oxy)acetamido)ethoxy)ethyl)pyrrolidin-3-yl)-2-fluoro-5-methoxybenzamide], for which the DC50 was at most 500 nM. Moreover, the Dmax (read-out: Dmax) was in the range of 60 to 80%.

Consider `COc1cc(C(=O)N[C@H]2CCN(C(=O)CCCCN3CCN(c4cccc5c4C(=O)N(C4CCC(=O)NC4=O)C5=O)CC3)C2)c(F)cc1Nc1ncc2c(n1)N(C1CCCC1)CC(F)(F)C(=O)N2C` (stereo partly drawn) [Example 173, 4-((9-cyclopentyl-7,7-difluoro-5-methyl-6-oxo-6,7,8,9-tetrahydro-5H-pyrimido[4,5-b][1,4]diazepin-2-yl)amino)-N-((3S)-1-(5-(4-(2-(2,6-dioxopiperidin-3-yl)-1,3-dioxoisoindolin-4-yl)piperazin-1-yl)pentanoyl)pyrrolidin-3-yl)-2-fluoro-5-methoxybenzamide], for which, under “read-out: Dmax”, the Dmax is at least 80%.

Take `COc1cc(C(=O)NC2CCN(C(=O)CCN3CCN(c4ccc5c(c4)C(=O)N(C4CCC(=O)NC4=O)C5=O)CC3)CC2)c(F)cc1Nc1ncc2c(n1)N(C1CCCC1)CC(F)(F)C(=O)N2C` (stereo not shown) [Compound 74, 4-((9-cyclopentyl-7,7-difluoro-5-methyl-6-oxo-6,7,8,9-tetrahydro-5H-pyrimido[4,5-b][1,4]diazepin-2-yl)amino)-N-(1-(3-(4-(2-(2,6-dioxopiperidin-3-yl)-1,3-dioxoisoindolin-5-yl)piperazin-1-yl)propanoyl)piperidin-4-yl)-2-fluoro-5-methoxybenzamide]: the DC50 is at most 50 nM. Further, the Dmax (read-out: Dmax) was at least 80%.

For the compound `COc1cc(C(=O)NC2CCN(C(=O)CCCCCNc3cccc4c3C(=O)N(C3CCC(=O)NC3=O)C4=O)C2)c(F)cc1Nc1ncc2c(n1)N(C1CCCC1)CC(F)(F)C(=O)N2C` (stereo not shown) [Compound 118, 4-((9-cyclopentyl-7,7-difluoro-5-methyl-6-oxo-6,7,8,9-tetrahydro-5H-pyrimido[4,5-b][1,4]diazepin-2-yl)amino)-N-(1-(6-((2-(2,6-dioxopiperidin-3-yl)-1,3-dioxoisoindolin-4-yl)amino)hexanoyl)pyrrolidin-3-yl)-2-fluoro-5-methoxybenzamide], the DC50 was at most 50 nM. Under “read-out: Dmax”, the Dmax was at least 80%.

With `CN1C(=O)C(F)(F)CN(C2CCCC2)c2nc(Nc3ccc(C(=O)NCCCOCCCOCCNc4cccc5c4C(=O)N(C4CCC(=O)NC4=O)C5=O)cc3)ncc21` (stereo not shown) [Example 170, 4-((9-cyclopentyl-7,7-difluoro-5-methyl-6-oxo-6,7,8,9-tetrahydro-5H-pyrimido[4,5-b][1,4]diazepin-2-yl)amino)-N-(3-(3-(2-((2-(2,6-dioxopiperidin-3-yl)-1,3-dioxoisoindolin-4-yl)amino)ethoxy)propoxy)propyl)benzamide], for the setting “read-out: Dmax”, the Dmax was at least 80%.

For the compound `COc1cc(C(=O)NC2CCN(CCCCCCCCCNc3cccc4c3C(=O)N(C3CCC(=O)NC3=O)C4=O)CC2)c(F)cc1Nc1ncc2c(n1)N(C1CCCC1)CC(F)(F)C(=O)N2C` (stereo not shown) [Compound 13], the DC50 was at most 500 nM; the Dmax result is “B (B: Dmax is 80% or less and 60% or more)”.

On to `COc1cc(C(=O)NC2CCN(C(=O)CCOCCNc3cccc4c3C(=O)N(C3CCC(=O)NC3=O)C4=O)CC2)c(F)cc1Nc1ncc2c(n1)N(C1CCCC1)CC(F)(F)C(=O)N2C` (stereo not shown) [Compound 32, 4-((9-cyclopentyl-7,7-difluoro-5-methyl-6-oxo-6,7,8,9-tetrahydro-5H-pyrimido[4,5-b][1,4]diazepin-2-yl)amino)-N-(1-(3-(2-((2-(2,6-dioxopiperidin-3-yl)-1,3-dioxoisoindolin-4-yl)amino)ethoxy)propanoyl)piperidin-4-yl)-2-fluoro-5-methoxybenzamide], for which the DC50 is at most 50 nM. Where the note is “read-out: Dmax”, the maximal degradation (Dmax) was at least 80%.
